{"source": "patent US11806341B2", "about": "“Methods of diagnosing and treating anxiety disorder” (THE CHILDREN'S HOSPITAL OF PHILADELPHIA, priority 2015, dated 2023)", "key": {"[1]": {"system": "adolescent subjects previously diagnosed with ADHD who also had at least one genetic alteration in an mGluR network gene", "settings": "recently completed precision-medicine-based clinical trial; cited from earlier work"}, "[2]": {"system": "group I and group II/III mGluRs", "settings": "Hirouchi 2000; cited from earlier work"}, "[3]": {"system": "adolescent subjects previously diagnosed with ADHD who also had at least one genetic alteration in an mGluR network gene", "assay": "Open-label Phase 1b clinical trial of NFC-1 in adolescent ADHD subjects with a CNV in an mGluR network gene", "assay_type": "in vivo, human"}, "[4]": {"system": "dementia-related cognitive impairment", "settings": "Phase I-III trials, dementia-related indications; cited from earlier work"}}, "note": "Entries after “also recorded” stand apart in the source; their conditions may differ.", "data": [{"smiles": "O=C1CC[C@H](C(=O)N2CCCCC2)N1", "note": "[fasoracetam]", "values": [{"measurement": "treatment of ADHD in subjects having a genetic alteration in an mGluR network gene", "setting": "[1]", "result": "successfully treated"}, {"measurement": "activation of mGluRs in vitro", "setting": "[2]", "result": "nonselective activator against all classes of mGluRs; also recorded: can stimulate both group I and group II/III mGluRs"}]}, {"smiles": "O=C1CC[C@H](C(=O)N2CCCCC2)N1", "note": "[NFC-1, fasoracetam monohydrate]", "values": [{"measurement": "OCD symptoms during therapy", "setting": "[3]; eight of the 30 ADHD subjects with symptoms of OCD", "result": "OCD symptoms improved"}, {"measurement": "dermatillomania symptoms (ear scratching, bleeding ulcer) during therapy", "setting": "[3]; one subject with OCD and a history of ear scratching", "result": "dermatillomania symptoms had reduced"}, {"measurement": "score on Vanderbilt Scale items related to anxiety (nos. 41, 42, and 47)", "setting": "[3]; week 5, two subjects, all 3 items, at enrollment maximum score of 3 on 2 of the 3 items", "result": 3}, {"measurement": "total \"never\" score for all BRIEF anxiety/mood questions for all subjects", "setting": "[3]; week 5 of dose escalation (50-400 mg bid), all 30 subjects, score at enrollment was 125", "result": 191}, {"measurement": "total \"often\" score for all BRIEF anxiety/mood questions for all subjects", "setting": "[3]; week 5 of dose escalation (50-400 mg bid), all 30 subjects, score at enrollment was 154", "result": 77}, {"measurement": "safety and tolerability", "setting": "[4]", "result": "generally safe and well tolerated"}]}]}
